# Literature values as cited in US20090298708A1, “2'-DEOXY-2'-FLUORO-BETA-D-ARABINONUCLEOSIDE 5'-TRIPHOSPHATES AND THEIR USE IN ENZYMATIC NUCLEIC ACID SYNTHESIS” (priority 2006, published 2009).
# Biological target: T1, DNA pol-γ (Homo sapiens, UniProt P54098)
# T1 sequence (P54098 1-1239): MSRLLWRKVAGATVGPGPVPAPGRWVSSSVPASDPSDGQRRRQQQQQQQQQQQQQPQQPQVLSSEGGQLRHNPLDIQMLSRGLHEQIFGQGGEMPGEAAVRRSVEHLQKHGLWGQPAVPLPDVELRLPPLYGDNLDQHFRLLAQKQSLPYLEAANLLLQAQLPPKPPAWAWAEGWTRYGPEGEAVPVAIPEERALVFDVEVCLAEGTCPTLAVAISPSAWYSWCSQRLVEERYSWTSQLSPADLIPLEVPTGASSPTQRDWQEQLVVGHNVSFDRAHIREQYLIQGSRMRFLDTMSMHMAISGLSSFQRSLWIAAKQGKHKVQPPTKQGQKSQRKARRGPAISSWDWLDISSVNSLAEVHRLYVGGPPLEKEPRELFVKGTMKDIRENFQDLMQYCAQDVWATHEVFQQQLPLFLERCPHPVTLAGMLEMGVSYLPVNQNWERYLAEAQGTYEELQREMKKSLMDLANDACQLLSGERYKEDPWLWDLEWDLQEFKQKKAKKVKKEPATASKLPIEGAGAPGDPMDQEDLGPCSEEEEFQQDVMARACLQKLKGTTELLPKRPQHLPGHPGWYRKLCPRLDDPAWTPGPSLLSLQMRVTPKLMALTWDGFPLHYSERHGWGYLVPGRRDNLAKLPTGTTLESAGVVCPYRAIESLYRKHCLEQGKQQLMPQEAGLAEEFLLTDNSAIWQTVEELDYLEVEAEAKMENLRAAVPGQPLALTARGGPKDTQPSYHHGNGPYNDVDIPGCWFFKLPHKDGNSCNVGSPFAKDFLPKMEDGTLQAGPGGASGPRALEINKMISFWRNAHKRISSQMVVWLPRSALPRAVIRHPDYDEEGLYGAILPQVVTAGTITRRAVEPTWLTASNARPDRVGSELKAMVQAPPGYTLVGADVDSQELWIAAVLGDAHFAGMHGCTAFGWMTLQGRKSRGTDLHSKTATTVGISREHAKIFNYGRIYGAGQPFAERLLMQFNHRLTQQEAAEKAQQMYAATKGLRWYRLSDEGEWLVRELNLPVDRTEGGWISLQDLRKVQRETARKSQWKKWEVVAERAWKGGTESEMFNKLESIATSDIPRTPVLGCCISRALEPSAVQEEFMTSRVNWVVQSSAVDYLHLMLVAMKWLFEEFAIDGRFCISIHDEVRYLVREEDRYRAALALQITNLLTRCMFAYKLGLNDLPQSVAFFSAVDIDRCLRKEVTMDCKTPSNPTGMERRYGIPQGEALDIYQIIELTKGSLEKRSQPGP
# Details: Lewis W. et al. (1994) Biochemistry, 33, 14620-14624; read-out: inhibition constant (Ki) with DNA pol-γ; cited from earlier work
compound,measurement,value
O=c1[nH]c(=O)n(C2OC(COP(=O)(O)OP(=O)(O)OP(=O)(O)O)C(O)C2F)cc1I (stereo not shown) [FIAU 5′-TP],Ki,40 nM
